Columns and labels:
Chinese sprangletop = assay: Test Example 3: herbicidal effect by foliage application, Wagner pot (Table 18, symbol D); format: in vivo, chinese sprangletop (Leptochloa chinensis); conditions: amount of applied herbicide 320 g/ha
In short: (§1)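 Plants were sown in alluvial soil held under 0.1–0.5 cm standing water and grown 14 days in a greenhouse at 25–30 °C. An emulsifiable formulation, water-diluted to the set dose, was then sprayed onto the foliage, and effects were scored three weeks later using previously defined criteria.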

rice flat sedge = assay: Test Example 3: herbicidal effect by foliage application, Wagner pot (Table 18, symbol E); format: in vivo, rice flat sedge (Cyperus iria); conditions: amount of applied herbicide 320 g/ha
In short: as §1

green foxtail = assay: Test Example 5: herbicidal effect by foliage application, plastic box (Table 20, symbol G); format: in vivo, green foxtail (Setaria viridis); conditions: foliage application, evaluated three weeks after application; for G: green foxtail, herbicidal effect (criteria 0-5): AAH 320 g/ha
In short: (§2)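 Plants were sown into sterilized diluvial soil under about 1.5 cm cover and kept in a greenhouse at 25° C. to 30° C. Fourteen days on, foliage received an even spray of the diluted emulsion. Herbicidal or crop effect was judged three weeks afterwards.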

wild oat = assay: Test Example 5: herbicidal effect by foliage application, plastic box (Table 20, symbol I); format: in vivo, wild oat (Avena fatua); conditions: foliage application, evaluated three weeks after application; for I: wild oat, herbicidal effect (criteria 0-5): AAH 320 g/ha
In short: as §2

windgrass = assay: Test Example 5: herbicidal effect by foliage application, plastic box (Table 20, symbol L); format: in vivo, windgrass (Apera spica-venti); conditions: foliage application, evaluated three weeks after application; for L: windgrass, herbicidal effect (criteria 0-5): AAH 320 g/ha
In short: as §2

persian speedwell = assay: Test Example 5: herbicidal effect by foliage application, plastic box (Table 20, symbol R); format: in vivo, Persian speedwell (Veronica persica); conditions: foliage application, evaluated three weeks after application; for R: persian speedwell, herbicidal effect (criteria 0-5): AAH 320 g/ha
In short: as §2

velvetleaf = assay: Test Example 5: herbicidal effect by foliage application, plastic box (Table 20, symbol M); format: in vivo, velvetleaf (Abutilon theophrasti); conditions: foliage application, evaluated three weeks after application; for M: velvetleaf, herbicidal effect (criteria 0-5): AAH 320 g/ha
In short: as §2

blackgrass = assay: Test Example 5: herbicidal effect by foliage application, plastic box (Table 20, symbol J); format: in vivo, blackgrass (Alopecurus myosuroides); conditions: foliage application, evaluated three weeks after application; for J: blackgrass, herbicidal effect (criteria 0-5): AAH 320 g/ha
In short: as §2

barnyard grass [1] = assay: Test Example 5: herbicidal effect by foliage application, plastic box (Table 20, symbol H); format: in vivo, barnyard grass (Echinochloa crus-galli); conditions: foliage application, evaluated three weeks after application; for H: barnyard grass, herbicidal effect (criteria 0-5): AAH 320 g/ha
In short: as §2

redroot pigweed = assay: Test Example 5: herbicidal effect by foliage application, plastic box (Table 20, symbol N); format: in vivo, redroot pigweed (Amaranthus retroflexus); conditions: foliage application, evaluated three weeks after application; for N: redroot pigweed, herbicidal effect (criteria 0-5): AAH 320 g/ha
In short: as §2

southern crabgrass = assay: Test Example 5: herbicidal effect by foliage application, plastic box (Table 20, symbol F); format: in vivo, southern crabgrass (Digitaria ciliaris); conditions: foliage application, evaluated three weeks after application; for F: southern crabgrass, herbicidal effect (criteria 0-5): AAH 320 g/ha
In short: as §2

barnyard grass [2] = assay: Test Example 3: herbicidal effect by foliage application, Wagner pot (Table 18, symbol H); format: in vivo, barnyard grass (Echinochloa crus-galli); conditions: amount of applied herbicide 320 g/ha
In short: as §1

Italian ryegrass = assay: Test Example 5: herbicidal effect by foliage application, plastic box (Table 20, symbol K); format: in vivo, Italian ryegrass (Lolium multiflorum); conditions: foliage application, evaluated three weeks after application; for K: Italian ryegrass, herbicidal effect (criteria 0-5): AAH 320 g/ha
In short: as §2

chickweed = assay: Test Example 5: herbicidal effect by foliage application, plastic box (Table 20, symbol P); format: in vivo, common chickweed (Stellaria media); conditions: foliage application, evaluated three weeks after application; for P: chickweed, herbicidal effect (criteria 0-5): AAH 320 g/ha
In short: as §2

lambsquarters = assay: Test Example 5: herbicidal effect by foliage application, plastic box (Table 20, symbol O); format: in vivo, lambsquarters (Chenopodium album); conditions: foliage application, evaluated three weeks after application; for O: lambsquarters, herbicidal effect (criteria 0-5): AAH 320 g/ha
In short: as §2

| SMILES | herbicidal effect on D: Chinese sprangletop (Chinese sprangletop) | herbicidal effect on E: rice flat sedge (rice flat sedge) | herbicidal effect on H: barnyard grass (barnyard grass [2]) | G: green foxtail, herbicidal effect (criteria 0-5) (green foxtail) | I: wild oat, herbicidal effect (criteria 0-5) (wild oat) | L: windgrass, herbicidal effect (criteria 0-5) (windgrass) | R: persian speedwell, herbicidal effect (criteria 0-5) (persian speedwell) | M: velvetleaf, herbicidal effect (criteria 0-5) (velvetleaf) | J: blackgrass, herbicidal effect (criteria 0-5) (blackgrass) | H: barnyard grass, herbicidal effect (criteria 0-5) (barnyard grass [1]) | N: redroot pigweed, herbicidal effect (criteria 0-5) (redroot pigweed) | F: southern crabgrass, herbicidal effect (criteria 0-5) (southern crabgrass) | K: Italian ryegrass, herbicidal effect (criteria 0-5) (Italian ryegrass) | P: chickweed, herbicidal effect (criteria 0-5) (chickweed) | O: lambsquarters, herbicidal effect (criteria 0-5) (lambsquarters) | further results |
| --- | --- | --- | --- | --- | --- | --- | --- | --- | --- | --- | --- | --- | --- | --- | --- | --- |
| Cc1nn(C)c(=O)c(-c2c(-c3cccc(SC(C)C)c3)sc3ccc(F)cc23)c1O [2-250] | 2 (Herbicidal rate of 20% or more and less than 40%) | 3 (Herbicidal rate of 40% or more and less than 70%) | 3 (Herbicidal rate of 40% or more and less than 70%) |  |  |  |  |  |  |  |  |  |  |  |  | herbicidal effect on G: green foxtail (criteria 0-5) (green foxtail; 320 g/ha): 0 (Herbicidal rate of 5% or less (almost no effect)); herbicidal effect on I: wild oat (criteria 0-5) (wild oat; 320 g/ha): 2 (Herbicidal rate of 20% or more and less than 40%); herbicidal effect on L: windgrass (criteria 0-5) (windgrass; 320 g/ha): 3 (Herbicidal rate of 40% or more and less than 70%); herbicidal effect on R: persian speedwell (criteria 0-5) (persian speedwell; 320 g/ha): 5 (Herbicidal rate of 90% or more (almost completely withered)); herbicidal effect on M: velvetleaf (criteria 0-5) (velvetleaf; 320 g/ha): 2 (Herbicidal rate of 20% or more and less than 40%); herbicidal effect on J: blackgrass (criteria 0-5) (blackgrass; 320 g/ha): 3 (Herbicidal rate of 40% or more and less than 70%); herbicidal effect on H: barnyard grass (criteria 0-5) (barnyard grass [1]; 320 g/ha): 0 (Herbicidal rate of 5% or less (almost no effect)); herbicidal effect on N: redroot pigweed (criteria 0-5) (redroot pigweed; 320 g/ha): 5 (Herbicidal rate of 90% or more (almost completely withered)); herbicidal effect on F: southern crabgrass (criteria 0-5) (southern crabgrass; 320 g/ha): 0 (Herbicidal rate of 5% or less (almost no effect)); herbicidal effect on K: Italian ryegrass (criteria 0-5) (Italian ryegrass; 320 g/ha): 1 (Herbicidal rate of 5% or more and less than 20%); herbicidal effect on P: chickweed (criteria 0-5) (chickweed; 320 g/ha): 5 (Herbicidal rate of 90% or more (almost completely withered)); herbicidal effect on O: lambsquarters (criteria 0-5) (lambsquarters; 320 g/ha): 3 (Herbicidal rate of 40% or more and less than 70%) |
| Cc1nn(C)c(=O)c(-c2c(-c3cccc(SCC(F)(F)F)c3)sc3ccc(F)cc23)c1O [2-262] | 0 (Herbicidal rate of 5% or less (almost no effect)) | 2 (Herbicidal rate of 20% or more and less than 40%) | 3 (Herbicidal rate of 40% or more and less than 70%) | 0 (Herbicidal rate of 5% or less (almost no effect)) | 3 (Herbicidal rate of 40% or more and less than 70%) | 4 (Herbicidal rate of 70% or more and less than 90%) | 5 (Herbicidal rate of 90% or more (almost completely withered)) | 4 (Herbicidal rate of 70% or more and less than 90%) | 3 (Herbicidal rate of 40% or more and less than 70%) | 0 (Herbicidal rate of 5% or less (almost no effect)) | 5 (Herbicidal rate of 90% or more (almost completely withered)) | 0 (Herbicidal rate of 5% or less (almost no effect)) | 3 (Herbicidal rate of 40% or more and less than 70%) | 5 (Herbicidal rate of 90% or more (almost completely withered)) | 3 (Herbicidal rate of 40% or more and less than 70%) |  |
| Cc1nn(C)c(=O)c(-c2c(-c3ccc(OC(F)F)cc3)sc3ccc(F)cc23)c1OC(=O)C(C)(C)c1ccccc1 [2-282] | 0 (Herbicidal rate of 5% or less (almost no effect)) | 0 (Herbicidal rate of 5% or less (almost no effect)) | 3 (Herbicidal rate of 40% or more and less than 70%) | 4 (Herbicidal rate of 70% or more and less than 90%) | 0 (Herbicidal rate of 5% or less (almost no effect)) | 0 (Herbicidal rate of 5% or less (almost no effect)) | 5 (Herbicidal rate of 90% or more (almost completely withered)) | 4 (Herbicidal rate of 70% or more and less than 90%) | 0 (Herbicidal rate of 5% or less (almost no effect)) | 1 (Herbicidal rate of 5% or more and less than 20%) | 5 (Herbicidal rate of 90% or more (almost completely withered)) | 0 (Herbicidal rate of 5% or less (almost no effect)) | 0 (Herbicidal rate of 5% or less (almost no effect)) | 5 (Herbicidal rate of 90% or more (almost completely withered)) | 5 (Herbicidal rate of 90% or more (almost completely withered)) |  |

Source: US20230085307A1, “PYRIDAZINONE COMPOUND AND HERBICIDE” (NISSAN CHEMICAL CORPORATION, priority 2019, published 2023)
